Measurements: paper PMC11992087, “A Bacteroides thetaiotaomicron genetic locus encodes activities consistent with mucin O-glycoprotein processing and N-acetylgalactosamine metabolism” (Nature Communications, 2025)
Blank lines part the entries; values can stand above or below the molecule they belong to.

Key:
BT4246-SusD-like [1] = target: T1, BT4246-SusD-like (Bacteroides thetaiotaomicron, UniProt Q89ZX5); experiment: X-ray crystal structure, […] Å; format: binding; parameters: gene BT_4246; residues 25-642, His-tag removed by TEV protease, from E. coli (crystal); settings: crystals soaked in 4% PGMIII O-glycan oligosaccharides; only the terminal Gal of an undefined oligosaccharide is modelled, not free galactose
T1 sequence (Q89ZX5 25-642): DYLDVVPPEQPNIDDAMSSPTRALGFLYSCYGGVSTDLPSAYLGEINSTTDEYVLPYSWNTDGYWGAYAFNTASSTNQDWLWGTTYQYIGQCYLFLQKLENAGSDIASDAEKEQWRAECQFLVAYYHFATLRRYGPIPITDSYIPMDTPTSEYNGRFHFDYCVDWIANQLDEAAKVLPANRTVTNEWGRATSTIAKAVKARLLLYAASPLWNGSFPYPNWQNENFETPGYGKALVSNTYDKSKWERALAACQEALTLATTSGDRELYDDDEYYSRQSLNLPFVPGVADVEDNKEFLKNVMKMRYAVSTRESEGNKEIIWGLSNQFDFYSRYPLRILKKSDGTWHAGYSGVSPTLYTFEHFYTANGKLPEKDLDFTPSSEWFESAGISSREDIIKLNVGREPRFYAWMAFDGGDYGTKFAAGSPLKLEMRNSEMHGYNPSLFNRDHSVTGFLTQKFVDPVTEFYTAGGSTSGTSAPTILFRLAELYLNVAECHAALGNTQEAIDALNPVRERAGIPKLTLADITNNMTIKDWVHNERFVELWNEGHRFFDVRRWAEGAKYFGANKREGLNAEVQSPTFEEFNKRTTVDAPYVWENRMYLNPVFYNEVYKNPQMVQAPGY

BT4244-CBM32 = target: T2, BT4244-CBM32 (Bacteroides thetaiotaomicron, UniProt Q89ZX7); experiment: ITC; format: binding; settings: 20 mM Tris-HCl pH 7.5, 25 °C; single-site model
T2 construct: gene BT_4244
T2 sequence (Q89ZX7 145-285 limits assumed): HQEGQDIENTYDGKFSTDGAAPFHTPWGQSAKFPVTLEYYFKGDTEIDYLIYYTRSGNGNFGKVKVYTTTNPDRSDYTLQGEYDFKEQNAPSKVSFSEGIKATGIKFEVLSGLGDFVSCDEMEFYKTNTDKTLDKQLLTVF

BT4245-SGBP = target: T3, BT4245-SGBP (Bacteroides thetaiotaomicron, UniProt Q89ZX6); experiment: ITC; format: binding; settings: 20 mM Tris-HCl pH 7.5, 25 °C; single-site model
T3 construct: gene BT_4245; full-length mature protein, signal peptide removed, His-tagged, from E. coli
T3 sequence (Q89ZX6 21-430): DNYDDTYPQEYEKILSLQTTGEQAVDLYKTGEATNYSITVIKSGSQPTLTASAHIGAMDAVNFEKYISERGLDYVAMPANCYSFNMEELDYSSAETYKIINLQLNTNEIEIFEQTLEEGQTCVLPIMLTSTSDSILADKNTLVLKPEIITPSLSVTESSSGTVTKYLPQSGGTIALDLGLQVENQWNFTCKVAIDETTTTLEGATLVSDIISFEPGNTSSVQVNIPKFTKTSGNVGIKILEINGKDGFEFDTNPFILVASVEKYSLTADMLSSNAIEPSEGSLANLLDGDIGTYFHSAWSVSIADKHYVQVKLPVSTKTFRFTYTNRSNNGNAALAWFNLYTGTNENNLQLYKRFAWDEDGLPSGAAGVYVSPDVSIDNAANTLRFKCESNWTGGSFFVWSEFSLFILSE

BT4246-SusD-like [2] = target: T1, BT4246-SusD-like; experiment: ITC; format: binding; parameters: gene BT_4246; mature form, signal peptide removed, His-tagged, from E. coli (ITC); settings: 20 mM Tris-HCl pH 7.5, 25 °C; single-site model
[3] = substrate: CC(=O)N[C@H]1[C@@H](Oc2ccc([N+](=O)[O-])cc2)O[C@H](CO)[C@H](O)[C@@H]1O; experiment: 4-nitrophenol release at A400; format: biochemical, Bacteroides thetaiotaomicron; settings: 20 mM MOPS pH 7.0, 37 °C, 0.4 µM enzyme
Method: 4-nitrophenol release at A400 on BT4243-GH109 | between GalNAc and serine in Tn antigen as well as PNP-α-GalNAc | enzyme (final) was added to substrate (PNP-α-GalNAc or PNP-β-GalNAc, respectively)

Molecule: OC[C@H]1OC(O)[C@H](O)[C@@H](O)[C@H]1O (some centres unmarked) [terminal Gal from a mucin O-glycan oligosaccharide]
X-ray crystal structure, 1.8 Å (BT4246-SusD-like [1]): In the resulting structure, unambiguous electron density was observed for a β-linked Gal

Molecule: OC[C@H]1OC(O)[C@H](O)[C@@H](O)[C@H]1O (some centres unmarked) [Gal]
Ka (BT4244-CBM32): 0.16 (±0.01) × 10^4 | Ka (BT4245-SGBP): > 0.1 × 10^4

Ka (BT4246-SusD-like [2]): 0.45 (±0.03) × 10^4 | Ka (BT4244-CBM32): 0.20 (±0.01) × 10^4
Molecule: CC(=O)N[C@H]1C(O)O[C@H](CO)[C@H](O)[C@@H]1O[C@@H]1O[C@H](CO)[C@H](O)[C@H](O)[C@H]1O (some centres unmarked) [core 1 disaccharide]

Ka (BT4244-CBM32): 0.23 (±0.00) × 10^4
Molecule: OC[C@H]1O[C@@H](O[C@H]2[C@H](O)[C@@H](O)C(O)O[C@@H]2CO)[C@H](O)[C@@H](O)[C@H]1O (some centres unmarked) [lactose]

Ka (BT4246-SusD-like [2]): 0.13 (±0.07) × 10^4
Molecule: CC(=O)N[C@H]1C(O)O[C@H](CO)[C@@H](O)[C@@H]1O[C@@H]1O[C@H](CO)[C@H](O)[C@H](O)[C@H]1O (some centres unmarked) [lacto-N-biose]

Molecule: CC(=O)N[C@H]1C(O)O[C@H](CO)[C@H](O)[C@@H]1O (some centres unmarked) [GalNAc]
Ka (BT4244-CBM32): 0.40 (±0.03) × 10^4 | Ka (BT4245-SGBP): 1.20 (±0.2) × 10^4

B1: BT4243-GH109 (Bacteroides thetaiotaomicron VPI-5482) (protein)
chain: QKTKAKFSPIKVETPARPANQQDVIQLVTPKLETVRVGFIGLGMRGPGAVERWTHIPGTQIVALCDLLPERVENAQKILEKAGLPKAASYAGDEKAWKKLCERDDIDVVYIATDWKHHADMGVYAMEHGKHVAIEVPAAMTLDEIWKLINTSEKTRKHCMQLENCVYDFFELTSLNMAQQGVFGEVLHVEGAYIHNLEDFWPYYWNNWRMDYNQKHRGDVYATHGMGPACQVLNIHRGDRMKTLVAMDTKAVNGPAYIKKSTGKEVKDFQNGDQTTTLIRTENGKTMLIQHNVMTPRPYSRMYQVVGADGYASKYPIEEYCLRPTQVDSNDVPNHEKLNAHGSVSEDVKKALMAKYKDPIHKELEETAKKVGGHGGMDYIMDYRLVYCLRNGLPLDMDVYDLAEWCCMAELTRLSIENGSAPVEVPDFTRGGWNKVQGYRHAFAE
notes: mature form, signal peptide removed, His-tagged, from E. coli
Km [3]: 0.03 (±0.005) mM | kcat [3]: 2.1 (±0.3) s-1
